Key:
PKR R532W = PKR R532W (Homo sapiens, UniProt P30613, R532W); experiment: PKR mutant assay, PKR R532W AC50; type: biochemical; conditions: mutant PKR R532W enzyme
Method: (§1) • PKR or PKR mutant enzyme solution was diluted in assay buffer. • 2 μL of test compound was added into wells first, and then 180 μL reaction mix was added. • Reactions mixture with test compound was assembled except for ADP, and plates were stored for 60 minutes at room temperature. • 20 uL ADP was added to start reaction at room temperature and reaction progress was measured as changes in absorbance at 340 nm wavelength at room temperature.
(§2) Test Compound Preparation: • Test compound stock was made at 100x concentration in 100% DMSO (10 mM) • 1 to 3 dilutions were made for 11 points (i.e. 50 μl of first concentration added to 100 μl 100% DMSO to yield 3.33 mM, 50 μl of this added to 100 μl DMSO to yield 1.11 mM, and so forth) • 1 to 100 dilution into assay (2 μl in 200 μl) yielded starting concentration of 100 μM, decreasing 3 fold for 11 points • Assay Buffer: 100 mM KCl, 50 mM Tris 7.5, 5 mM MgCl2, 1 mM DTT, 0.03% BSA • Reaction Mixture: PKR mutant enzyme: 80-400 ng/well; ADP: 0.22-1.65 mM; PEP: 0.1-0.5 mM; NADH:180 uM; LDH: 0.5 units (Sigma#59023); DTT: 1 mM; BSA: 0.03%.
(§3) A compound described herein was diluted with DMSO and tested at 1 μM concentration. The enzyme was diluted in 1× Buffer: (100 mM KCl, 50 mM Tris 7.5, 5 mM MgCl2, 1 mM DTT, 0.03% BSA). 2 μL of compound solution was first added into wells, and then 180 μL of enzyme solution was added. Assays were assembled except for ADP, and plates were stored for 60 minutes at RT. 20 μL ADP was added to start the assay and assay output was evaluated using OD340 at SpectraMax. The assay was run at room temperature. • Final concentration: PKR R532W (100 ng/well), Tris pH 7.5 (50 mM), KCl (100 mM), MgCl2 (5 mM), ADP (0.36 mM), PEP (0.1 mM), NADH (180 μM), LDH (0.5 units, Sigma 59023), DTT (1 mM) and BSA (0.03%).

PKR R510Q = PKR R510Q (Homo sapiens, UniProt P30613, R510Q); experiment: PKR mutant assay, PKR R510Q AC50; type: biochemical; conditions: mutant PKR R510Q enzyme
Chain of PKR R510Q (P30613 whole entry R510Q): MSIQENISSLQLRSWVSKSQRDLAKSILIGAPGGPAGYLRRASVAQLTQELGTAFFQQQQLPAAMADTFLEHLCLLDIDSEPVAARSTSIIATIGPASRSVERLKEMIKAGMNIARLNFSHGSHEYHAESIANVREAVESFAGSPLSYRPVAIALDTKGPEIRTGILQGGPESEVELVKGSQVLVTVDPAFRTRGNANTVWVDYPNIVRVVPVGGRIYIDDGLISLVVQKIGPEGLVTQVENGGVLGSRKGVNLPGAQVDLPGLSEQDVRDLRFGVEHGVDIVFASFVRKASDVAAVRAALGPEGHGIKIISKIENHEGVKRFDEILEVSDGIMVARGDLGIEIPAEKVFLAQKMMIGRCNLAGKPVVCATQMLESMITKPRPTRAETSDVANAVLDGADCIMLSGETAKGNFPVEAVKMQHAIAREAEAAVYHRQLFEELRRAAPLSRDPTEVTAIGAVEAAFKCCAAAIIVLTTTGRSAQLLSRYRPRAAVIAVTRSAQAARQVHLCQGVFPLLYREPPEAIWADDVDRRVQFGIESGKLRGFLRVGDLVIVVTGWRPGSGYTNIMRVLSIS
Method: as §1
as §2, with “0.03%. […]” for “0.03%.”

PKR WT [1] = molecular target: T1, PKR WT (Homo sapiens, UniProt P30613); experiment: PKR WT cell based assay AC50; conditions: wild type PKR
T1 sequence (P30613 whole entry): as the sequence (P30613 whole entry R510Q) above, with Q510R counted along it

PKR WT [2] = molecular target: T1, PKR WT; experiment: PKR WT enzymatic assay AC50; type: biochemical; conditions: wild type PKR
Method: as §1, §2
as §3, with “wt” for “R532W”, “(0.48” for “(0.36”, “(0.15” for “(0.1”

Chain of PKR R532W (P30613 whole entry R532W): as the sequence (P30613 whole entry R510Q) above, with Q510R, R532W counted along it

Row | AC50 (PKR R532W) [µM] | AC50 (PKR R510Q) [µM] | AC50 (PKR WT [1]) [µM] | AC50 (PKR WT [2]) [µM] | Compound
1 | < 0.1 | 0.101 to 1 | 0.101 to 1 | < 0.1 | Cc1cc(F)ccc1C1(O)CN(C(=O)c2ccc(NS(=O)(=O)c3cccc4cccnc34)cc2)C1 [Compound 12, N-(4-(3-(4-fluoro-2-methylphenyl)-3-hydroxyazetidine-1-carbonyl)phenyl)quinoline-8-sulfonamide]
2 | < 0.1 | < 0.1 | < 0.1 | < 0.1 | O=C(c1ccc(NS(=O)(=O)c2cccc3cccnc23)cc1)N1CC(O)(c2cccc(C(F)(F)F)c2)C1 [Compound 9, N-(4-(3-hydroxy-3-(3-(trifluoromethyl)phenyl)azetidine-1-carbonyl)phenyl)quinoline-8-sulfonamide]
3 | 0.101 to 1 | 0.101 to 1 | 0.101 to 1 | < 0.1 | CCCCC1(O)CN(C(=O)c2ccc(NS(=O)(=O)c3cccc4cccnc34)cc2)C1 [Compound 16, N-(4-(3-butyl-3-hydroxyazetidine-1-carbonyl)phenyl)quinoline-8-sulfonamide]
4 | < 0.1 | 0.101 to 1 | 0.101 to 1 | 0.101 to 1 | Cc1ncccc1C1(O)CN(C(=O)c2ccc(NS(=O)(=O)c3cccc4cccnc34)cc2)C1 [Compound 19, N-(4-(3-hydroxy-3-(2-methylpyridin-3-yl)azetidine-1-carbonyl)phenyl)quinoline-8-sulfonamide]
5 | < 0.1 | 0.101 to 1 | < 0.1 | < 0.1 | COc1cccc(C2(O)CN(C(=O)c3ccc(NS(=O)(=O)c4cccc5cccnc45)cc3)C2)c1 [Compound 61]
6 | 0.101 to 1 | 1.01 to 10 | < 0.1 | 0.101 to 1 | O=C(c1ccc(NS(=O)(=O)c2cccc3cccnc23)cc1)N1CC(O)(c2cccc(F)c2)C1 [Compound 4, N-(4-(3-(3-fluorophenyl)-3-hydroxyazetidine-1-carbonyl)phenyl)quinoline-8-sulfonamide]
7 | < 0.1 | 0.101 to 1 | 0.101 to 1 | < 0.1 | Cc1ccccc1C1(O)CN(C(=O)c2ccc(NS(=O)(=O)c3cccc4cccnc34)cc2)C1 [Compound 15, N-(4-(3-hydroxy-3-(o-tolyl)azetidine-1-carbonyl)phenyl)quinoline-8-sulfonamide]
8 | < 0.1 | 0.101 to 1 | 0.101 to 1 | < 0.1 | COc1ccccc1C1(O)CN(C(=O)c2ccc(NS(=O)(=O)c3cccc4cccnc34)cc2)C1 [Compound 2, N-(4-(3-hydroxy-3-(2-methoxyphenyl)azetidine-1-carbonyl)phenyl)quinoline-8-sulfonamide]

From patent US9458132B2, “Therapeutic compounds and compositions and their use as PKM2 modulators” (AGIOS PHARMACEUTICALS, INC., priority 2012, dated 2016)
